PMC8459971, “Evaluation of the hepatotoxicity of the novel GPR40 (FFAR1) agonist CPL207280 in the rat and monkey” (PLoS ONE, 2021)
“And” between values parts separate entries of the source, which are not always exact repeats. Identical values can stand only once. Like-named read-outs stand apart in the source and are kept apart here.

Columns and labels:
[1] = system: HepaRG spheroids; assay: HepaRG 3D spheroids, cell and mitochondrial health markers, 14 days; conditions: for High Cell Loss (Cellular ATP) / High Cell Loss (DNA structure) / High Cell Loss (Glutathione content) / High Cell Loss (Mitochondrial mass) / High Cell Loss (Mitochondrial membrane potential) / High Cell Loss (Oxidative stress) / High Cell Loss (Spheroid count) / High Cell Loss (Spheroid size): timepoint 336; for AC50: Homo sapiens, HepaRG
Procedure: Hepatic spheroids were formed by seeding HepaRG™ cells into round-bottom ultra-low adhesion 96-well spheroid plates (Corning®) in 3D liver media with 0.5% DMSO, 100 U/mL penicillin, and 100 mg/L streptomycin. Cells were incubated at 37°C and 5% CO2 until spheroid formation and then compound-treated. The test compound was diluted in the vehicle, and serial dilutions were made in a 0.5% vehicle in HepaRG™ induction media. […] L-buthionine sulfoximine was used as positive control for GSH content, whereas rotenone was simultaneously used as a positive control for mitochondrial dysfunction and ATP content. At the end of the incubation period, the cells were loaded with the relevant dye for each cell health marker: DNA structure–Hoescht, GSH content–mBCL, ROS formation–DHE, mitochondrial dysfunction–MitoTracker, and cellular ATP content–CellTiter-Glo®, Promega. The plate was then scanned using an automated confocal fluorescent cellular imager, ArrayScan® XTI (Thermo Scientific Cellomics) at 37°C and 5% CO2. Further, the cellular ATP content was measured using CellTiter-Glo® (Promega, USA).

[2] = molecular target: T1, OAT2v1 (Homo sapiens, UniProt Q9Y694); assay: Uptake transporter inhibition assay, OAT2v1; format: cell-based; conditions: OAT2v1; reference inhibitor 300 µM
T1 construct: expressed in transfected cells; host or cells: HEK cells
T1 sequence (Q9Y694 1-546 isoform Q9Y694-2): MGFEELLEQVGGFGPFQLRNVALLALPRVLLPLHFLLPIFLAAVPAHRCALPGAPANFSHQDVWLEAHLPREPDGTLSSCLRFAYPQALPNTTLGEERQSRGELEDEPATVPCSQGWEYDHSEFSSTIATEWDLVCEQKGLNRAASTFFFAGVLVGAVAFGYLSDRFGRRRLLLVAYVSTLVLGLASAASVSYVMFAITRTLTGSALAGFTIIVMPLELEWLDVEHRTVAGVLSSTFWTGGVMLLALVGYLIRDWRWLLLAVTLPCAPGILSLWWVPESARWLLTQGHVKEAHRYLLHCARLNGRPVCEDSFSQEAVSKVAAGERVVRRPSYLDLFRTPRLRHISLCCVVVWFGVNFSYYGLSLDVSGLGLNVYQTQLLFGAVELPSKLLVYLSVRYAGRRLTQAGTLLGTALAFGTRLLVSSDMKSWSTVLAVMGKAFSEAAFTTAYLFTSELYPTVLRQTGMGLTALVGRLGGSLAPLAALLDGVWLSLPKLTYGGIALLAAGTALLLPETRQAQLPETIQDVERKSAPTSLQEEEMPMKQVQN
Procedure: For the uptake transporter inhibition assay, cells were washed twice with 100 μL of the appropriate buffer (HK, pH 7.4) for OATP1B1, followed by HBSS (pH 7.4) for (NTCP, OAT1, OAT2v1, OATP1A2, and OATP1B3). Uptake experiments were carried out at 37 ± 1°C in 50 μL of the respective buffer containing the probe substrate and the compound or solvent.

[3] = HepaRG spheroid, TIMEPOINT 336, at the concentration (uM) given
[4] = HepaRG spheroid, TIMEPOINT 336, plotted value at the concentration given

## CCCCS(=N)(=O)CC[C@H](N)C(=O)O (stereo partly drawn) [L-buthionine-sulfoximine]
[1]; CONC 0.4 uM, HepaRG spheroid
  High Cell Loss (Cellular ATP): N
  High Cell Loss (DNA structure): N
  High Cell Loss (Glutathione content): N
  High Cell Loss (Mitochondrial mass): N
  High Cell Loss (Mitochondrial membrane potential): N
  High Cell Loss (Oxidative stress): N
  High Cell Loss (Spheroid count): N
  High Cell Loss (Spheroid size): N
[1]; CONC 0.4 uM, TIMEPOINT 336
  Cellular ATP Mean Plotted Value: 1.06
  DNA structure Mean Plotted Value: 1
  Glutathione content Mean Plotted Value: 0.883
  Mitochondrial mass Mean Plotted Value: 1.03
  Mitochondrial membrane potential Mean Plotted Value: 0.945
  Oxidative stress Mean Plotted Value: 1.02
  Spheroid count Mean Plotted Value: 1
  Spheroid size Mean Plotted Value: 0.995
[1]; CONC 1 uM, HepaRG spheroid
  High Cell Loss (Cellular ATP): N
  High Cell Loss (DNA structure): N
  High Cell Loss (Glutathione content): N
  High Cell Loss (Mitochondrial mass): N
  High Cell Loss (Mitochondrial membrane potential): N
  High Cell Loss (Oxidative stress): N
  High Cell Loss (Spheroid count): N
  High Cell Loss (Spheroid size): N
[1]; CONC 1 uM, TIMEPOINT 336
  Cellular ATP Mean Plotted Value: 1.05
  DNA structure Mean Plotted Value: 1.1
  Glutathione content Mean Plotted Value: 0.886
  Mitochondrial mass Mean Plotted Value: 1.14
  Mitochondrial membrane potential Mean Plotted Value: 1
  Oxidative stress Mean Plotted Value: 0.984
  Spheroid count Mean Plotted Value: 1
  Spheroid size Mean Plotted Value: 1.06
[1]; CONC 4 uM, HepaRG spheroid
  High Cell Loss (Cellular ATP): N
  High Cell Loss (DNA structure): N
  High Cell Loss (Glutathione content): N
  High Cell Loss (Mitochondrial mass): N
  High Cell Loss (Mitochondrial membrane potential): N
  High Cell Loss (Oxidative stress): N
  High Cell Loss (Spheroid count): N
  High Cell Loss (Spheroid size): N
[1]; CONC 4 uM, TIMEPOINT 336
  Cellular ATP Mean Plotted Value: 0.856
  DNA structure Mean Plotted Value: 0.816
  Glutathione content Mean Plotted Value: 0.715
  Mitochondrial mass Mean Plotted Value: 1.03
  Mitochondrial membrane potential Mean Plotted Value: 0.861
  Oxidative stress Mean Plotted Value: 1
  Spheroid count Mean Plotted Value: 1
  Spheroid size Mean Plotted Value: 0.997
[1]; CONC 10 uM, HepaRG spheroid
  High Cell Loss (Cellular ATP): N
  High Cell Loss (DNA structure): N
  High Cell Loss (Glutathione content): N
  High Cell Loss (Mitochondrial mass): N
  High Cell Loss (Mitochondrial membrane potential): N
  High Cell Loss (Oxidative stress): N
  High Cell Loss (Spheroid count): N
  High Cell Loss (Spheroid size): N
[1]; CONC 10 uM, TIMEPOINT 336
  Cellular ATP Mean Plotted Value: 0.697
  DNA structure Mean Plotted Value: 1.13
  Glutathione content Mean Plotted Value: 0.689
  Mitochondrial mass Mean Plotted Value: 0.979
  Mitochondrial membrane potential Mean Plotted Value: 0.943
  Oxidative stress Mean Plotted Value: 1.04
  Spheroid count Mean Plotted Value: 1
  Spheroid size Mean Plotted Value: 0.951
[1]; CONC 40 uM, HepaRG spheroid
  High Cell Loss (Cellular ATP): N
  High Cell Loss (DNA structure): N
  High Cell Loss (Glutathione content): N
  High Cell Loss (Mitochondrial mass): N
  High Cell Loss (Mitochondrial membrane potential): N
  High Cell Loss (Oxidative stress): N
  High Cell Loss (Spheroid count): N
  High Cell Loss (Spheroid size): N
[1]; CONC 40 uM, TIMEPOINT 336
  Cellular ATP Mean Plotted Value: 0.216
  DNA structure Mean Plotted Value: 1.18
  Glutathione content Mean Plotted Value: 0.15
  Mitochondrial mass Mean Plotted Value: 1.05
  Mitochondrial membrane potential Mean Plotted Value: 0.972
  Oxidative stress Mean Plotted Value: 1.22
  Spheroid count Mean Plotted Value: 1
  Spheroid size Mean Plotted Value: 0.955
[1]; CONC 100 uM, HepaRG spheroid
  High Cell Loss (Cellular ATP): N
  High Cell Loss (DNA structure): N
  High Cell Loss (Glutathione content): N
  High Cell Loss (Mitochondrial mass): N
  High Cell Loss (Mitochondrial membrane potential): N
  High Cell Loss (Oxidative stress): N
  High Cell Loss (Spheroid count): N
  High Cell Loss (Spheroid size): N
[1]; CONC 100 uM, TIMEPOINT 336
  Cellular ATP Mean Plotted Value: 0.019
  DNA structure Mean Plotted Value: 1.13
  Glutathione content Mean Plotted Value: 0.119
  Mitochondrial mass Mean Plotted Value: 1.03
  Mitochondrial membrane potential Mean Plotted Value: 0.807
  Oxidative stress Mean Plotted Value: 1.13
  Spheroid count Mean Plotted Value: 1
  Spheroid size Mean Plotted Value: 0.975
[1]; CONC 400 uM, HepaRG spheroid
  High Cell Loss (Cellular ATP): N
  High Cell Loss (DNA structure): N
  High Cell Loss (Glutathione content): N
  High Cell Loss (Mitochondrial mass): N
  High Cell Loss (Mitochondrial membrane potential): N
  High Cell Loss (Oxidative stress): N
  High Cell Loss (Spheroid count): N
  High Cell Loss (Spheroid size): N
[1]; CONC 400 uM, TIMEPOINT 336
  Cellular ATP Mean Plotted Value: 0.00038
  DNA structure Mean Plotted Value: 0.279
  Glutathione content Mean Plotted Value: 0.0382
  Mitochondrial mass Mean Plotted Value: 0.963
  Mitochondrial membrane potential Mean Plotted Value: 0.452
  Oxidative stress Mean Plotted Value: 0.937
  Spheroid count Mean Plotted Value: 1
  Spheroid size Mean Plotted Value: 0.965
[1]; CONC 1000 uM, HepaRG spheroid
  High Cell Loss (Cellular ATP): N
  High Cell Loss (DNA structure): N
  High Cell Loss (Glutathione content): N
  High Cell Loss (Mitochondrial mass): N
  High Cell Loss (Mitochondrial membrane potential): N
  High Cell Loss (Oxidative stress): N
  High Cell Loss (Spheroid count): N
  High Cell Loss (Spheroid size): N
[1]; CONC 1000 uM, TIMEPOINT 336
  Cellular ATP Mean Plotted Value: 0.000301
  DNA structure Mean Plotted Value: 0.123
  Glutathione content Mean Plotted Value: 0.0358
  Mitochondrial mass Mean Plotted Value: 0.999
  Mitochondrial membrane potential Mean Plotted Value: 0.412
  Oxidative stress Mean Plotted Value: 0.683
  Spheroid count Mean Plotted Value: 1
  Spheroid size Mean Plotted Value: 0.983
[1]; HepaRG spheroid, TIMEPOINT 336
  Cellular ATP MEC: 6.84 µM
  DNA structure MEC: 222 µM
  Glutathione content MEC: 2.95 µM
  Mitochondrial membrane potential MEC: 177 µM
  Oxidative stress MEC: 658 (NS) uM
[1]; [3]
  Cellular ATP MR (% @ concentration): 100%
  DNA structure MR (% @ concentration): 89%
  Glutathione content MR (% @ concentration): 96%
  Mitochondrial membrane potential MR (% @ concentration): 58%
  Oxidative stress MR (% @ concentration): 35%
[1]; [4]
  Cellular ATP MR: 0.000301
  DNA structure MR: 0.123
  Glutathione content MR: 0.0358
  Mitochondrial membrane potential MR: 0.412
  Oxidative stress MR: 0.683
[1]; read-out: Cellular ATP AC50
  AC50: 15.5 µM
[1]; read-out: DNA structure AC50
  AC50: 294 µM
[1]; read-out: Glutathione content AC50
  AC50: 16.2 µM
[1]; read-out: Mitochondrial mass AC50
  AC50: > 1000 µM
[1]; read-out: Mitochondrial membrane potential AC50
  AC50: 511 µM
[1]; read-out: Oxidative stress AC50
  AC50: > 1000 µM
[1]; read-out: Spheroid count AC50
  AC50: > 1000 µM
[1]; read-out: Spheroid size AC50
  AC50: > 1000 µM

## COc1ccc2c(c1)c(CC(=O)O)c(C)n2C(=O)c1ccc(Cl)cc1 [Indomethacin]
[2]
  Accumulation (counts per minute; CPM) HEK293FT-OAT2v1: 503 CPM and 467 CPM and 353 CPM and 367 CPM
